ChEMBL document CHEMBL3526091, “Pharmacokinetics, metabolism, and excretion of the glycogen synthase kinase-3 inhibitor LY2090314 in rats, dogs, and humans: a case study in rapid clearance by extensive metabolism with low circulating metabolite exposure” (Drug Metab Dispos, 2013)

Columns and labels:
[1] = Drug metabolism in Bcrp knockout Sprague-Dawley rat bile at 5 mg/kg, iv administered for 30 mins; type: ADME, organism-based; design: dose 5 mg/kg, dosed compound name LY2090314, route intravenous; settings: in vivo, 0.5 h
Plasma [2] = assay: Plasma concentration in beagle dog at Tmax; type: ADME, cell-free, Canis lupus familiaris; design: dosed compound name [14C]LY2090314
Plasma [3] = assay: Drug recovery in beagle dog plasma assessed as radiochemical peak area at 5 mg/kg, iv administered for 30 mins after 0.5 hrs by radio analysis; type: ADME, organism-based, Canis lupus familiaris; design: dose 5 mg/kg, dosed compound name [14C]LY2090314, route intravenous; settings: in vivo
Plasma [4] = assay: Drug recovery in beagle dog plasma assessed as radiochemical peak area at 5 mg/kg, iv administered for 30 mins after 2 hrs by radio analysis; type: ADME, organism-based, Canis lupus familiaris; design: dose 5 mg/kg, dosed compound name [14C]LY2090314, route intravenous; settings: in vivo
[5] = Elimination half life in Sprague-Dawley rat at 5 mg/kg, iv administered for 30 mins; type: ADME, organism-based; design: dose 5 mg/kg, dosed compound name [14C]LY2090314, route intravenous; settings: in vivo, read-out: beta t1/2 (converted)
[6] = Drug recovery in Sprague-Dawley rat feces at 5 mg/kg, iv administered for 30 mins during 0 to 168 hrs time interval by radio analysis; type: ADME, organism-based; design: dose 5 mg/kg, dosed compound name [14C]LY2090314, route intravenous; settings: in vivo
Rattus norvegicus [7] = assay: Drug recovery in Sprague-Dawley rat cage at 5 mg/kg, iv administered for 30 mins during 0 to 168 hrs time interval by radio analysis; type: ADME, organism-based; design: dose 5 mg/kg, dosed compound name [14C]LY2090314, route intravenous; settings: in vivo
Canis familiaris [8] = assay: Total drug recovery in beagle dog at 5 mg/kg, iv administered for 30 mins during 0 to 24 hrs time interval by radio analysis; type: ADME, organism-based, Canis lupus familiaris; design: dose 5 mg/kg, dosed compound name [14C]LY2090314, route intravenous; settings: in vivo
Rattus norvegicus [9] = assay: Total drug recovery in Sprague-Dawley rat at 5 mg/kg, iv administered for 30 mins during 0 to 168 hrs time interval by radio analysis; type: ADME, organism-based; design: dose 5 mg/kg, dosed compound name [14C]LY2090314, route intravenous; settings: in vivo
[10] = Cmax in beagle dog at 5 mg/kg, iv administered for 30 mins; type: ADME, organism-based, Canis lupus familiaris; design: dose 5 mg/kg, dosed compound name [14C]LY2090314, route intravenous; settings: in vivo
[11] = Elimination half life in beagle dog at 5 mg/kg, iv administered for 30 mins; type: ADME, organism-based, Canis lupus familiaris; design: dose 5 mg/kg, dosed compound name [14C]LY2090314, route intravenous; settings: in vivo, read-out: beta t1/2 (converted)
Canis familiaris [12] = assay: AUC (0 to infinity) in beagle dog assessed as total radioactivity at 5 mg/kg, iv administered for 30 mins; type: ADME, organism-based, Canis lupus familiaris, Plasma; design: dose 5 mg/kg, dosed compound name [14C]LY2090314, route intravenous, time infinity; settings: in vivo, 0.5 h
Canis familiaris [13] = assay: Cmax in beagle dog assessed as total radioactivity at 5 mg/kg, iv administered for 30 mins; type: ADME, organism-based, Canis lupus familiaris; design: dose 5 mg/kg, dosed compound name [14C]LY2090314, route intravenous; settings: in vivo, 0.5 h
Rattus norvegicus [14] = assay: Tmax in Sprague-Dawley rat assessed as total radioactivity at 5 mg/kg, iv administered for 30 mins; type: ADME, organism-based; design: dose 5 mg/kg, dosed compound name [14C]LY2090314, route intravenous; settings: in vivo, 0.5 h
Rattus norvegicus [15] = assay: Clearance in Sprague-Dawley rat assessed as total radioactivity at 5 mg/kg, iv administered for 30 mins; type: ADME, organism-based; design: dose 5 mg/kg, dosed compound name [14C]LY2090314, route intravenous; settings: in vivo, 0.5 h
Rattus norvegicus [16] = assay: Volume of distribution at steady state in Sprague-Dawley rat assessed as total radioactivity at 5 mg/kg, iv administered for 30 mins; type: ADME, organism-based; design: dose 5 mg/kg, dosed compound name [14C]LY2090314, route intravenous; settings: in vivo, 0.5 h
Rattus norvegicus [17] = assay: Elimination half life in Sprague-Dawley rat assessed as total radioactivity at 5 mg/kg, iv administered for 30 mins; type: ADME, organism-based; design: dose 5 mg/kg, dosed compound name [14C]LY2090314, route intravenous; settings: in vivo, 0.5 h
Plasma [18] = assay: Plasma concentration in Sprague-Dawley rat at 5 mg/kg, iv administered for 30 mins; type: ADME, organism-based; design: dose 5 mg/kg, dosed compound name [14C]LY2090314, route intravenous; settings: in vivo, 0.5 h
[19] = Drug recovery in bile duct-cannulated Sprague-Dawley rat assessed as radioactivity in bile during 0 to 12 hrs at 5 mg/kg, iv administered for 30 mins relative to dosed radioactivity; type: ADME, organism-based; design: dose 5 mg/kg, dosed compound name [14C]LY2090314, route intravenous; settings: in vivo
[20] = Drug recovery in bile duct-cannulated Sprague-Dawley rat assessed as radioactivity in feces during 0 to 24 hrs at 5 mg/kg, iv administered for 30 mins relative to dosed radioactivity; type: ADME, organism-based; design: dose 5 mg/kg, dosed compound name [14C]LY2090314, route intravenous; settings: in vivo
[21] = Drug recovery in bile duct-intact beagle dog assessed as radioactivity in feces during 0 to 48 hrs at 5 mg/kg, iv administered for 30 mins; type: ADME, organism-based, Canis lupus familiaris; design: dose 5 mg/kg, dosed compound name [14C]LY2090314, route intravenous; settings: in vivo
[22] = Drug recovery in bile duct-intact Sprague-Dawley rat assessed as radioactivity in bile during 0 to 24 hrs at 5 mg/kg, iv administered for 30 mins relative to dosed radioactivity; type: ADME, organism-based; design: dose 5 mg/kg, dosed compound name [14C]LY2090314, route intravenous; settings: in vivo
Plasma [23] = assay: Drug metabolism in Mdr1a knockout Sprague-Dawley rat plasma at 5 mg/kg, iv administered for 30 mins; type: ADME, organism-based; design: dose 5 mg/kg, dosed compound name LY2090314, route intravenous; settings: in vivo, 0.5 h
Plasma [24] = assay: Drug metabolism in Mrp2 knockout Sprague-Dawley rat plasma at 5 mg/kg, iv administered for 30 mins; type: ADME, organism-based; design: dose 5 mg/kg, dosed compound name LY2090314, route intravenous; settings: in vivo, 0.5 h
[25] = Drug recovery in beagle dog urine at 5 mg/kg, iv administered for 30 mins during 0 to 12 hrs by radio analysis; type: ADME, organism-based, Canis lupus familiaris; design: dose 5 mg/kg, dosed compound name [14C]LY2090314, route intravenous; settings: in vivo
[26] = Cmax in cancer patient at 10 mg for 60 mins treated 2/1 cycle/day; type: ADME, organism-based; design: dose 10 mg, dosed compound name LY2090314; settings: human, in vivo
[27] = Cmax in cancer patient at 60 mg for 60 mins treated 1/8 cycle/day; type: ADME, organism-based; design: dose 60 mg, dosed compound name LY2090314; settings: human, in vivo
[28] = Cmax in cancer patient at 80 mg for 60 mins treated 1/8 cycle/day; type: ADME, organism-based; design: dose 80 mg, dosed compound name LY2090314; settings: human, in vivo
[29] = Tmax in cancer patient at 20 mg for 60 mins treated 1/1 cycle/day; type: ADME, organism-based; design: dosed compound name LY2090314; settings: human, in vivo
[30] = Tmax in cancer patient at 40 mg for 60 mins treated 1/1 cycle/day; type: ADME, organism-based; design: dosed compound name LY2090314; settings: human, in vivo
[31] = Tmax in cancer patient at 10 mg for 60 mins treated 2/1 cycle/day; type: ADME, organism-based; design: dosed compound name LY2090314; settings: human, in vivo
[32] = Tmax in cancer patient at 20 mg for 60 mins treated 2/1 cycle/day; type: ADME, organism-based; design: dosed compound name LY2090314; settings: human, in vivo
[33] = Half life in cancer patient at 80 mg for 60 mins treated 1/8 cycle/day; type: ADME, organism-based; design: dosed compound name LY2090314; settings: human, in vivo
[34] = Clearance in cancer patient kidney at 80 to 120 mg for 60 mins; type: ADME, organism-based; design: dosed compound name LY2090314; settings: human, in vivo
[35] = Drug recovery in bile duct-intact Sprague-Dawley rat assessed as radioactivity in feces during 0 to 24 hrs at 5 mg/kg, iv for 30 mins; type: ADME, organism-based; design: dose 5 mg/kg, dosed compound name [14C]LY2090314, route intravenous; settings: in vivo
[36] = Drug recovery in bile duct-cannulated Sprague-Dawley rat feces at 5 mg/kg, iv administered for 30 mins during 0 to 168 hrs time interval by radio analysis; type: ADME, organism-based; design: dose 5 mg/kg, dosed compound name [14C]LY2090314, route intravenous; settings: in vivo
[37] = AUC (0 to infinity) in cancer patient at 80 mg for 60 mins treated 1/1 cycle/day; type: ADME, organism-based; design: dose 80 mg, time infinity, dosed compound name LY2090314; settings: human, plasma
[38] = AUC (0 to infinity) in cancer patient at 40 mg for 60 mins treated 1/8 cycle/day; type: ADME, organism-based; design: dose 40 mg, time infinity, dosed compound name LY2090314; settings: human, plasma
[39] = AUC (0 to infinity) in cancer patient at 80 mg for 60 mins treated 1/8 cycle/day; type: ADME, organism-based; design: dose 80 mg, time infinity, dosed compound name LY2090314; settings: human, plasma
[40] = Clearance in cancer patient at 10 mg for 60 mins treated 1/1 cycle/day; type: ADME, organism-based; design: dosed compound name LY2090314; settings: human, in vivo
[41] = Clearance in cancer patient at 40 mg for 60 mins treated 1/1 cycle/day; type: ADME, organism-based; design: dosed compound name LY2090314; settings: human, in vivo
[42] = Clearance in cancer patient at 60 mg for 60 mins treated 1/1 cycle/day; type: ADME, organism-based; design: dosed compound name LY2090314; settings: human, in vivo
[43] = Clearance in cancer patient at 10 mg for 60 mins treated 2/1 cycle/day; type: ADME, organism-based; design: dosed compound name LY2090314; settings: human, in vivo
[44] = Clearance in cancer patient at 40 mg for 60 mins treated 1/8 cycle/day; type: ADME, organism-based; design: dosed compound name LY2090314; settings: human, in vivo
[45] = Volume of distribution at steady state in cancer patient at 20 mg for 60 mins treated 1/1 cycle/day; type: ADME, organism-based; design: dosed compound name LY2090314; settings: human, in vivo, read-out: Vdss
[46] = Volume of distribution at steady state in cancer patient at 80 mg for 60 mins treated 1/1 cycle/day; type: ADME, organism-based; design: dosed compound name LY2090314; settings: human, in vivo, read-out: Vdss
[47] = Volume of distribution at steady state in cancer patient at 120 mg for 60 mins treated 1/1 cycle/day; type: ADME, organism-based; design: dosed compound name LY2090314; settings: human, in vivo, read-out: Vdss
[48] = Volume of distribution at steady state in cancer patient at 10 mg for 60 mins treated 2/1 cycle/day; type: ADME, organism-based; design: dosed compound name LY2090314; settings: human, in vivo, read-out: Vdss
[49] = Volume of distribution at steady state in cancer patient at 20 mg for 60 mins treated 2/1 cycle/day; type: ADME, organism-based; design: dosed compound name LY2090314; settings: human, in vivo, read-out: Vdss
[50] = Volume of distribution at steady state in cancer patient at 80 mg for 60 mins treated 1/8 cycle/day; type: ADME, organism-based; design: dosed compound name LY2090314; settings: human, in vivo, read-out: Vdss
[51] = Half life in cancer patient at 10 mg for 60 mins treated 1/1 cycle/day; type: ADME, organism-based; design: dosed compound name LY2090314; settings: human, in vivo
[52] = Half life in cancer patient at 40 mg for 60 mins treated 1/1 cycle/day; type: ADME, organism-based; design: dosed compound name LY2090314; settings: human, in vivo
[53] = Tmax in cancer patient at 60 mg for 60 mins treated 1/8 cycle/day; type: ADME, organism-based; design: dosed compound name LY2090314; settings: human, in vivo

Drug metabolism [1]: metabolite_detected
Compound recovery (Plasma [2]): 82.8%
Radiolabel recovery (Plasma [3]): 82.76%
Radiolabel recovery (Plasma [4]): 36.09%
half-life [5]: 21.5 min
Radiolabel recovery [6]: 96.7%
Radiolabel recovery (Rattus norvegicus [7]): 0.14%
Radiolabel recovery (Canis familiaris [8]): 61.5%
Radiolabel recovery (Rattus norvegicus [9]): 97.7%
Cmax [10]: 5090 ng/mL
half-life [11]: 39.7 min
AUC (Canis familiaris [12]): 15067 ng·h/mL
Cmax (Canis familiaris [13]): 7240 ng/mL
Tmax (Rattus norvegicus [14]): 30 min
CL (Rattus norvegicus [15]): 2430 mL/h/kg
Vdss (Rattus norvegicus [16]): 4489 mL/kg
beta t1/2 (Rattus norvegicus [17]): 7.25 h
Compound recovery (Plasma [18]): 70.4%
Radiolabel recovery [19]: 85.2%
Radiolabel recovery [20]: 6.75%
Radiolabel recovery [21]: 4.1%
Radiolabel recovery [22]: 1.8%
Drug metabolism (Plasma [23]): metabolite_not_detected
Drug metabolism (Plasma [24]): metabolite_not_detected
Radiolabel recovery [25]: 0.35%
Cmax [26]: 106 ng/mL
Cmax [27]: 1040 ng/mL
Cmax [28]: 1150 ng/mL
Tmax [29]: 58.8 min
Tmax [30]: 58.8 min
Tmax [31]: 55.2 min
Tmax [32]: 45 min
half-life [33]: 156 min
CL renal at 1 h [34]: 14.2 mL/min
Radiolabel recovery [35]: 2.43%
Radiolabel recovery [36]: 6.75%
AUC(0-inf) [37]: 1870 ng·h/mL
AUC(0-inf) [38]: 938 ng·h/mL
AUC(0-inf) [39]: 1830 ng·h/mL
clearance [40]: 787 mL/min
clearance [41]: 688 mL/min
clearance [42]: 617 mL/min
clearance [43]: 870 mL/min
clearance [44]: 710 mL/min
Vd [45]: 77.5 L
Vd [46]: 86.3 L
Vd [47]: 82.1 L
Vd [48]: 101 L
Vd [49]: 71.5 L
Vd [50]: 66 L
half-life [51]: 134 min
half-life [52]: 189 min
Tmax [53]: 55.2 min
SMILES: O=C1NC(=O)C(c2cnc3ccccn23)=C1c1cn2c3c(cc(F)cc13)CN(C(=O)N1CCCCC1)CC2 [LY-2090314]
